Measurements published in US5350864A, “Aminoalkylcarbamyl derivatives of forskolin as intermediates for the synthesis of useful forskolin derivatives” (The United States of America as represented by the …, priority 1990, dated 1994).
Entries after “also recorded” stand apart in the source; their conditions may differ. Like-named read-outs stand apart in the source and are kept apart here.

How the values were obtained:
adenylate cyclase [1] = assay: Filtration binding assay, ^125 I-labelled derivative 19 (6-^125 I-HPP-Fsk) to bovine brain membranes; conditions: for inhibition of 6-^125 I-HPP-Fsk binding: 60 min
Source text: (§1) Derivative 19 (6-^125 I-HPP-Fsk) was used to develop a binding assay for adenylate cyclase (Example 4). […] Therefore, a filtration assay can be used to separate the bound from free ligand and determine the amount of high affinity binding. […] Analogs of forskolin that activate adenylate cyclase inhibit the binding of 6-^125 I-HPP-Fsk to membranes. The ability of an agent to inhibit 6-^125 I-HPP-Fsk binding to membranes is therefore indicative of its ability to stimulate adenylate cyclase.
Binding of 6-^125 I-HPP-Fsk to Membranes--Crude membranes from bovine brain were incubated for 60 minutes at […] 20° C. with 20,000 cpm of 6-^125 I-HPP-Fsk. Binding equilibrium was reached by 45 minutes and was constant for at least 2 hours (data not shown). The incubations were carried out at 20° C. for 60 minutes in 12×75 glass test tubes in a total volume of 0.4 mL […] Tris-HCl buffer, pH 7.4. The membranes (0.40 mg/tube) were incubated in the presence of 5 mM MgCl2 and 10 mM NaF. The assay was terminated by the addition of 5 mL of cold Tris-HCl buffer to the tubes and rapid filtration over Whatman GF/C filters using a Brandel cell harvester. The assay was terminated as described above and the filters counted in a gamma counter. The nonspecific binding was calculated as the amount of label not displaced by 20 uM forskolin. The non specific binding was about 20% of the total bound.

glucose transporter [2] = molecular target: T1, glucose transporter (Homo sapiens, UniProt P11166); assay: Filtration binding assay, ^125 I-labelled derivative 8 (7-^125 I-HPP-Fsk) to human red blood cell membranes; conditions: for inhibition of 7-^125 I-HPP-Fsk binding: human red blood cell membranes
T1 construct: Crude membranes from human red blood cells; from tissue; host or cells: human red blood cells, membranes
T1 sequence (P11166 1-492): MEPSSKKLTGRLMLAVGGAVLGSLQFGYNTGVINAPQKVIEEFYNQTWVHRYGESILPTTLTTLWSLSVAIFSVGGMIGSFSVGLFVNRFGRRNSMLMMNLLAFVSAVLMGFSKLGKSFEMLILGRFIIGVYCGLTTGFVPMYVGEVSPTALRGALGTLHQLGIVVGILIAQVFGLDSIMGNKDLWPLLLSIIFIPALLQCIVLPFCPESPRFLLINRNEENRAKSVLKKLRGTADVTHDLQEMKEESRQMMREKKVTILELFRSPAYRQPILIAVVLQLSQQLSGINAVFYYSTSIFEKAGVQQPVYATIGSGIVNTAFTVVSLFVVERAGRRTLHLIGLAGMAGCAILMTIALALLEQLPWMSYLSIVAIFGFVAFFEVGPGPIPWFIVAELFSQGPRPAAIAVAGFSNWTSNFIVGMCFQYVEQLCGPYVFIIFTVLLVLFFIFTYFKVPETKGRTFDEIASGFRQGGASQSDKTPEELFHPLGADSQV
Protocol: Binding of 7-^125 IHPP-Fsk to Membranes--Crude membranes from human red blood cells were incubated for 60 minutes at 20° C. with 20,000 cpm of 7-^125 IHPP-Fsk. […] The incubations were carried out at 20° C. for 60 minutes in 12×75 glass test tubes in a total volume of 0.4 mL 50 mM Tris-HCl buffer, pH 7.4. The assay was terminated by the addition of 4 mL of cold Tris-HCl buffer to the tubes at rapid filtration over Whatman GF/C filters using a Brandel cell harvester. The assay was terminated as described above and the filters counted in a gamma counter. The nonspecific binding was calculated as the amount of label not displaced by 20 μM forskolin.

adenylate cyclase [3] = assay: Photolabelling of partially purified bovine brain adenylate cyclase, SDS gel electrophoresis; type: binding
Protocol: (§2) Derivative 20 (6-AIPPS-Fsk) is incubated with partially purified preparations of bovine brain adenylate cyclase, photolyzed, and then the radioactive proteins are analyzed by SDS gel electrophoresis. […] 6-AIPPS-Fsk can also label adenylate cyclase in crude membranes. 6-AIPPS-Fsk is incubated with bovine brain membranes, photolyzed, and the radioactive proteins are analyzed by SDS gel electrophoresis.

P-glycoprotein [4] = assay: Binding to the P-glycoprotein
adenylate cyclase [5] = conditions: literature, cited from earlier work
glucose transporter [6] = conditions: cited from earlier work
cancer cells = conditions: certain cancer cells; literature; cited from earlier work
[7] = literature; cited from earlier work
glucose transporter [8] = assay: Binding of 7-^125 I-HPP-Fsk to bovine brain
Source text: (§3) 7-^125 I-HPP-Fsk also binds with high affinity to other tissues including bovine brain, rat heart, rat muscle, and human platelets. The binding of 7-^125 I-HPP-Fsk to these tissues is inhibited by D-glucose and cytochalasin B. Therefore, 7-^125 I-HPP-Fsk binds with high affinity to the glucose transporter in diverse tissues.

glucose transporter [9] = assay: Binding of 7-^125 I-HPP-Fsk to rat heart
Source text: as §3

glucose transporter [10] = assay: Binding of 7-^125 I-HPP-Fsk to rat muscle
Source text: as §3

glucose transporter [11] = molecular target: T2, glucose transporter (Homo sapiens, UniProt P11169); assay: Binding of 7-^125 I-HPP-Fsk to human platelets
T2 construct: other tissues including bovine brain, rat heart, rat muscle, and human platelets; from tissue; host or cells: human platelets
T2 sequence (P11169 1-496): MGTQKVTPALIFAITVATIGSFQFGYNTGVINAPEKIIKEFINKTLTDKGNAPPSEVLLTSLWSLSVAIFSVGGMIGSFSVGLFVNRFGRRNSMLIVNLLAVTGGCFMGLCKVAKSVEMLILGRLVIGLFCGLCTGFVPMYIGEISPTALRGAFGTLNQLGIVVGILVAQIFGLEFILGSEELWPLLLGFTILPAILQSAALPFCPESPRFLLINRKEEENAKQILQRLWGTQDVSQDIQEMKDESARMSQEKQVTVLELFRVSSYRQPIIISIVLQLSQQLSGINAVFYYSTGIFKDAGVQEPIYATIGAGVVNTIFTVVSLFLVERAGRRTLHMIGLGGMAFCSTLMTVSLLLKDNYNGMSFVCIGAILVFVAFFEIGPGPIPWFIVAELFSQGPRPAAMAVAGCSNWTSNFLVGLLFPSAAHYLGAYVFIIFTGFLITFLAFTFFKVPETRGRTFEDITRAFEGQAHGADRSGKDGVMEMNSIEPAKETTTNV
Source text: as §3

glucose transporter [12] = molecular target: T1, glucose transporter; assay: Photolabelling of human red blood cell membranes, SDS gel electrophoresis; type: binding
Protocol: Derivative 9 (7-AIPPS-Fsk) is incubated with human red blood cell membranes, photolyzed, and then the radioactive proteins were analyzed by SDS gel electrophoresis.

glucose transporter [13] = conditions: read-out: affinity of cytochalasin B; cited from earlier work
[14] = test system: bovine brain adenylate cyclase; assay: Activation of bovine brain adenylate cyclase; type: biochemical; conditions: relative to forskolin
[15] = Stability to heating in base; type: physicochemical; conditions: heating in 0.1N KOH in methanol, two hours, 60° C.
Protocol: The 7-aminoethylcarbamate can be synthesized using the 1,9-dimethylformamide acetal of 7-desacetylforskolin as starting material (see synthetic scheme of FIG. 2). The selective reactivity of carbonyldiimidazole (CDI) with the equatorial 7β-hydroxyl group is exploited to form the 7-acylimidazole intermediate. The reaction of the 7-acylimidazole intermediate with ethylenediamine produces the 7-aminoethylcarbamate of forskolin (see 3 in FIG. 1 and Example 1). The same procedure is carried out to produce 7β-aminobutylcarbamate (5), 7β-aminohexylcarbamate (6), and the 7β-aminoheptylcarbamate (7) of forskolin. The 7β-aminoalkylcarbamates of forskolin are very stable compounds. The 7β-aminoethylcarbamate of forskolin is stable to heating in 0.1N KOH in methanol for two hours at 60° C.

Water solubility = type: physicochemical; conditions: relative to forskolin
adenylate cyclase [16] = assay: Binding of 6-^125 I-HPP-Fsk to membranes from human platelets
Source text: as §1

P-glycoprotein [17] = molecular target: T3, P-glycoprotein (Homo sapiens, UniProt P08183); assay: Photolabelling of membranes from human ovarian carcinoma cell line overexpressing P-glycoprotein
adenylate cyclase [18] = assay: Photolabelling of bovine brain membranes, SDS gel electrophoresis; type: binding
Protocol: as §2

P-glycoprotein [19] = molecular target: T3, P-glycoprotein

T3 sequence (P08183 whole entry): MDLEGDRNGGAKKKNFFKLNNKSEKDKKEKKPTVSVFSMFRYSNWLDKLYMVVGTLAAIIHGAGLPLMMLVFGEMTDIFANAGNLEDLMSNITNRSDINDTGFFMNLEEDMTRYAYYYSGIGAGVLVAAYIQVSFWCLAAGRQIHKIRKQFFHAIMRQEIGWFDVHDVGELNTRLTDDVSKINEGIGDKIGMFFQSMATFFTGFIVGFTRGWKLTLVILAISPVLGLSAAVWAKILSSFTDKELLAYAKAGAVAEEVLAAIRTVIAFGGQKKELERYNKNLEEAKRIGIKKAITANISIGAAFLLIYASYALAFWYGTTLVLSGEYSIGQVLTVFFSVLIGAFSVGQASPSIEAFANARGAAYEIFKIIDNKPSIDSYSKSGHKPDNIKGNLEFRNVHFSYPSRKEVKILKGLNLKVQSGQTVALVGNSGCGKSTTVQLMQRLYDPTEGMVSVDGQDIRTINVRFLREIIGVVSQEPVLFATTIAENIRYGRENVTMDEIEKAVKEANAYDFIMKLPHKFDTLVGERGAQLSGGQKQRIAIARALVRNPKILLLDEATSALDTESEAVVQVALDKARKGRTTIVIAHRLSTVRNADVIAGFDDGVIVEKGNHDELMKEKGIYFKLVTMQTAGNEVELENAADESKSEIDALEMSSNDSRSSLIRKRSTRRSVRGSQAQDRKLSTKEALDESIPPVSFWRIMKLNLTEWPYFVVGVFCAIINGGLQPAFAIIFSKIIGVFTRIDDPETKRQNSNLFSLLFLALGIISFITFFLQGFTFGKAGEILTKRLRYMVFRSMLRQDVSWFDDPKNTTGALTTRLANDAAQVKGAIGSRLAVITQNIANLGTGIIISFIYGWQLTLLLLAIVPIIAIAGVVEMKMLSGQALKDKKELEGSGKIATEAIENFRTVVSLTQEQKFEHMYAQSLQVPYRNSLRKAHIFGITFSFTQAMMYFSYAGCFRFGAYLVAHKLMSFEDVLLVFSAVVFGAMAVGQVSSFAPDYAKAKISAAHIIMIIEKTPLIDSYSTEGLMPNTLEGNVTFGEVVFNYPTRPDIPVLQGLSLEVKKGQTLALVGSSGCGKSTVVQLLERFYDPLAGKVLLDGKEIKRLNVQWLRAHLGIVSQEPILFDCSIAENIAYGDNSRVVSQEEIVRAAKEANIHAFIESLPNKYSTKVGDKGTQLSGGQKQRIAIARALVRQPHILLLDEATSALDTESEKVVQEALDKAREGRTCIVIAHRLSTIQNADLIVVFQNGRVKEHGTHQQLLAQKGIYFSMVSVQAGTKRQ

SMILES: C=C[C@@]1(C)CC(=O)[C@]2(O)[C@@]3(C)[C@@H](O)CCC(C)(C)[C@@H]3[C@H](O)[C@H](OC(C)=O)[C@@]2(C)O1 [Compound 1, forskolin]
- inhibition of 6-^125 I-HPP-Fsk binding (adenylate cyclase [1]; bovine brain membranes, 20° C.): inhibited
- binding affinity / selectivity (glucose transporter [2]): binds to the glucose transporter in human red blood cells
- inhibition of 7-^125 I-HPP-Fsk binding (glucose transporter [2]): inhibited
- inhibition of labelling by 6-AIPPS-Fsk (adenylate cyclase [3]): inhibited
- binding to P-glycoprotein (P-glycoprotein [4]): bind to the P-glycoprotein
- activation of adenylate cyclase (adenylate cyclase [5]): activate the enzyme adenylate cyclase and increase intracellular cyclic AMP
- potency at activating adenylate cyclase versus inhibiting glucose transport (glucose transporter [6]; relative to adenylate cyclase activation): equipotent
- sensitization to cytotoxic effects of drugs (cancer cells): can sensitize certain cancer cells to the cytotoxic effects of drugs
- cardiotonic effects [7]: marked cardiotonic effects

SMILES: C=C1C(C)C2C(Cc3ccccc3)NC(=O)C23OC(=O)/C=C/C(O)CCCC(C)C/C=C/C3C1O (stereo not drawn) [cytochalasin B]
- inhibition of 6-^125 I-HPP-Fsk binding (adenylate cyclase [1]; bovine brain membranes, 20° C.): not inhibited
- inhibition of 7-^125 I-HPP-Fsk binding (glucose transporter [2]): inhibition of binding; also recorded: inhibited
- inhibition of 7-^125 I-HPP-Fsk binding (glucose transporter [2]; listed as cytochlasin B): inhibited
- inhibition of 7-^125 I-HPP-Fsk binding (glucose transporter [8]): inhibited
- inhibition of 7-^125 I-HPP-Fsk binding (glucose transporter [9]): inhibited
- inhibition of 7-^125 I-HPP-Fsk binding (glucose transporter [10]): inhibited
- inhibition of 7-^125 I-HPP-Fsk binding (glucose transporter [11]): inhibited
- inhibition of labelling by 7-AIPPS-Fsk (glucose transporter [12]): inhibited
- Kd (glucose transporter [13]): ~1000 nM

SMILES: C=C[C@@]1(C)CC(=O)[C@]2(O)[C@@]3(C)[C@@H](O)CCC(C)(C)[C@@H]3[C@H](O)[C@H](OC(=O)NCCN)[C@@]2(C)O1 [Compound 3, 7-aminoethyl-carbamylforskolin]
- potency relative to 6-aminoethylcarbamyl derivative 4 at inhibiting binding of 7-^125 I-HPP-Fsk (glucose transporter [2]; erythrocyte membranes): about 30 fold
- extent of stimulation of adenylate cyclase [14]: stimulate adenylate cyclase to a greater extent than forskolin
- stability [15]: stable
- water solubility (Water solubility): enhanced water solubility

SMILES: C=C[C@@]1(C)CC(=O)[C@]2(O)[C@@]3(C)[C@@H](O)CCC(C)(C)[C@@H]3[C@H](OC(=O)NCCNC(=O)CCc3ccc(O)c([125I])c3)[C@H](OC(C)=O)[C@@]2(C)O1 [Derivative 19]
- time binding was constant (adenylate cyclase [1]; 20° C.): at least 2 hours
- time to binding equilibrium (adenylate cyclase [1]; 20° C.): ≤ 45 min
- selectivity of 6-^125 I-HPP-Fsk binding (adenylate cyclase [1]; adenylate cyclase versus glucose transporter, listed as 6-^125 I-HPP-Fsk): not binding with high affinity to the glucose transporter in brain tissue; also recorded: specific for adenylate cyclase
- binding affinity (adenylate cyclase [1]; bovine brain membranes): high affinity
- Kd (adenylate cyclase [1]; membranes from bovine brain): ~25 nM
- Kd (adenylate cyclase [16]): ~25 nM

SMILES: COc1cccc2c1C(=O)c1c(O)c3c(c(O)c1C2=O)C[C@@](O)(C(=O)CO)C[C@@H]3O[C@H]1C[C@H](N)[C@H](O)[C@H](C)O1 [adriamycin]
- inhibition of labelling by 6-AIPPS-Fsk (P-glycoprotein [17]): inhibited

SMILES: C=C[C@@]1(C)CC(=O)[C@@H]2[C@@]3(C)CCCC(C)(C)[C@@H]3[C@H](O)[C@H](OC(C)=O)[C@@]2(C)O1 [1,9-dideoxyforskolin]
- inhibition of 6-^125 I-HPP-Fsk binding (adenylate cyclase [1]; bovine brain membranes, 20° C.): not by 1,9-dideoxyforskolin
- inhibition of labelling by 6-AIPPS-Fsk (adenylate cyclase [18]): not inhibited
- inhibition of labelling by 6-AIPPS-Fsk (P-glycoprotein [19]): more potent at inhibiting the labelling by 6-AIPPS-Fsk than forskolin
- activation of adenylate cyclase (adenylate cyclase [5]): inability
- activation of adenylate cyclase (adenylate cyclase [5]; listed as 1,9-Dideoxyforskolin): does not activate adenylate cyclase; also recorded: not active at adenylate cyclase
- inhibition of glucose transport (glucose transporter [6]; adipocyte membranes, literature): inhibit glucose transport in adipocyte membranes
- sensitization to cytotoxic effects of drugs (cancer cells): can sensitize certain cancer cells to the cytotoxic effects of drugs
